In PubChem BioAssay (NCI):
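Exposure lasted 48 hours, with cells grown in 96-well plates and compounds tested at five concentrations. GI50 marks 50% less growth. TGI denotes the concentration required for complete inhibition of growth.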

Tests used:
Experiment in all cases: growth of human tumour cells (NCI), 48 h
SF-539 CNS = system: SF-539 CNS
MDA-MB-231 breast = system: MDA-MB-231 breast
LOX IMVI melanoma = system: LOX IMVI melanoma
TK-10 renal = system: TK-10 renal
NCI-H522 lung = system: NCI-H522 lung
SW-620 colon = system: SW-620 colon
SN12C renal = system: SN12C renal
HL-60(TB) leukemia = system: HL-60(TB) leukemia
NCI-H460 lung = system: NCI-H460 lung
SR leukemia = system: SR leukemia
OVCAR-4 ovarian = system: OVCAR-4 ovarian
NCI-H23 lung = system: NCI-H23 lung
K-562 leukemia = system: K-562 leukemia
SNB-19 CNS = system: SNB-19 CNS
UO-31 renal = system: UO-31 renal
CCRF-CEM leukemia = system: CCRF-CEM leukemia
NCI/ADR-RES ovarian = system: NCI/ADR-RES ovarian
MOLT-4 leukemia = system: MOLT-4 leukemia
CAKI-1 renal = system: CAKI-1 renal
HOP-92 NSCLC = system: HOP-92 NSCLC
786-0 renal = system: 786-0 renal
UACC-62 melanoma = system: UACC-62 melanoma
HT29 colon = system: HT29 colon
DU-145 prostate = system: DU-145 prostate
HCC-2998 colon = system: HCC-2998 colon
MALME-3M melanoma = system: MALME-3M melanoma
A549 NSCLC = system: A549 NSCLC
SNB-75 CNS = system: SNB-75 CNS
HS 578T breast = system: HS 578T breast
SK-MEL-28 melanoma = system: SK-MEL-28 melanoma
UACC-257 melanoma = system: UACC-257 melanoma
PC-3 prostate = system: PC-3 prostate
OVCAR-8 ovarian = system: OVCAR-8 ovarian
SK-OV-3 ovarian = system: SK-OV-3 ovarian
NCI-H226 lung = system: NCI-H226 lung
SF-295 CNS = system: SF-295 CNS
RXF 393 renal = system: RXF 393 renal
COLO 205 colon = system: COLO 205 colon
EKVX NSCLC = system: EKVX NSCLC
RPMI-8226 leukemia = system: RPMI-8226 leukemia
U251 CNS = system: U251 CNS
SK-MEL-2 melanoma = system: SK-MEL-2 melanoma
OVCAR-5 ovarian = system: OVCAR-5 ovarian
HCT-15 colon = system: HCT-15 colon
HCT-116 colon = system: HCT-116 colon
A498 renal = system: A498 renal
ACHN renal = system: ACHN renal
MDA-MB-435 = system: MDA-MB-435
HOP-62 NSCLC = system: HOP-62 NSCLC
IGROV1 ovarian = system: IGROV1 ovarian
T-47D breast = system: T-47D breast
KM12 colon = system: KM12 colon
SK-MEL-5 melanoma = system: SK-MEL-5 melanoma
SF-268 CNS = system: SF-268 CNS

O=C(N=C1N(c2ccccc2)C(=O)C(=O)N1c1ccccc1)c1ccccc1
TGI (SF-539 CNS): 26.6 µM
TGI (MDA-MB-231 breast): 18.6 µM
TGI (LOX IMVI melanoma): 13.6 µM
TGI (TK-10 renal): 33.2 µM
TGI (NCI-H522 lung): 6.23 µM
TGI (SW-620 colon): 28.4 µM
TGI (SN12C renal): 24.1 µM
TGI (HL-60(TB) leukemia): > 100 µM
TGI (NCI-H460 lung): 25.8 µM
TGI (SR leukemia): 41.4 µM
TGI (OVCAR-4 ovarian): 13.3 µM
TGI (NCI-H23 lung): 33.6 µM
TGI (K-562 leukemia): > 100 µM
TGI (SNB-19 CNS): 28.1 µM
TGI (UO-31 renal): 29 µM
TGI (CCRF-CEM leukemia): > 100 µM
TGI (NCI/ADR-RES ovarian): 25.8 µM
TGI (MOLT-4 leukemia): > 100 µM
TGI (CAKI-1 renal): 31.4 µM
TGI (HOP-92 NSCLC): 20.8 µM
TGI (786-0 renal): 12.5 µM
TGI (UACC-62 melanoma): 30.2 µM
TGI (HT29 colon): 40.9 µM
TGI (DU-145 prostate): 43.5 µM
TGI (HCC-2998 colon): 23.3 µM
TGI (MALME-3M melanoma): 38.4 µM
TGI (A549 NSCLC): 20.2 µM
TGI (SNB-75 CNS): 25.1 µM
TGI (HS 578T breast): 27.2 µM
TGI (SK-MEL-28 melanoma): 38.1 µM
TGI (UACC-257 melanoma): > 100 µM
TGI (PC-3 prostate): 50.6 µM
TGI (OVCAR-8 ovarian): 29.6 µM
TGI (SK-OV-3 ovarian): 19.6 µM
TGI (NCI-H226 lung): 29.2 µM
TGI (SF-295 CNS): 25.3 µM
TGI (RXF 393 renal): 13.5 µM
TGI (COLO 205 colon): 30 µM
TGI (EKVX NSCLC): 32.1 µM
TGI (RPMI-8226 leukemia): 74.9 µM
TGI (U251 CNS): 24.4 µM
TGI (SK-MEL-2 melanoma): 36.9 µM
TGI (OVCAR-5 ovarian): > 100 µM
TGI (HCT-15 colon): 22.4 µM
TGI (HCT-116 colon): 14.4 µM
TGI (A498 renal): 39.9 µM
TGI (ACHN renal): 14.3 µM
TGI (MDA-MB-435): 99.2 µM
TGI (HOP-62 NSCLC): 23.7 µM
TGI (IGROV1 ovarian): 23.5 µM
TGI (T-47D breast): 56.5 µM
TGI (KM12 colon): 46.9 µM
TGI (SK-MEL-5 melanoma): 32 µM
TGI (SF-268 CNS): 50.5 µM

CCCCCCCCCCCC[n+]1c(C)cc(N)c2ccccc21
GI50 (OVCAR-4 ovarian): 0.327 µM
TGI (OVCAR-4 ovarian): 1.6 µM
GI50 (NCI/ADR-RES ovarian): 3.18 µM
TGI (NCI/ADR-RES ovarian): > 100 µM
GI50 (HOP-92 NSCLC): 0.167 µM
TGI (HOP-92 NSCLC): 1.19 µM
GI50 (DU-145 prostate): 0.67 µM
TGI (DU-145 prostate): 1.97 µM
GI50 (SK-MEL-28 melanoma): 1.18 µM
TGI (SK-MEL-28 melanoma): 2.47 µM
GI50 (UACC-257 melanoma): 0.249 µM
TGI (UACC-257 melanoma): 0.915 µM
GI50 (SK-OV-3 ovarian): 1.13 µM
TGI (SK-OV-3 ovarian): 2.36 µM
GI50 (SK-MEL-2 melanoma): 1.27 µM
TGI (SK-MEL-2 melanoma): 2.72 µM
GI50 (OVCAR-5 ovarian): 1.57 µM
TGI (OVCAR-5 ovarian): 3.28 µM
GI50 (SK-MEL-5 melanoma): 0.364 µM
TGI (SK-MEL-5 melanoma): 1.4 µM
